Measurements published in patent publication US10307463B2 (priority 2003, dated 2019).

How the values were obtained:
[1] = tested on: respiratory minute volume responses to CO2; conditions: rat, in vivo
[2] = pH 4
in vivo [3] = conditions: rat
[4] = tested on: gross behavioral and cardiovascular effects; conditions: rat, in vivo
dogs = conditions: dog, in vivo
rats = conditions: rat, in vivo
in vivo [5] = conditions: dog
GI transit = conditions: rat, in vivo

Question: For `CSCC[C@@H]1NC(=O)[C@H](CC(C)C)NC(=O)[C@H](CCCNC(=N)N)NC(=O)[C@H](CO)NC(=O)[C@@H]2CSSC[C@@H]3NC(=O)[C@H](CO)NC(=O)CNC(=O)[C@H]([C@@H](C)O)NC(=O)[C@H](CSSC[C@H](N)C(=O)N[C@@H](CCCCN)C(=O)NCC(=O)N[C@@H](CCCCN)C(=O)NCC(=O)N[C@@H](C)C(=O)N[C@@H](CCCCN)C(=O)N2)NC(=O)[C@H](CSSC[C@@H](C(N)=O)NC(=O)[C@H](CCCCN)NC(=O)CNC(=O)[C@H](CO)NC(=O)[C@H](CCCNC(=N)N)NC3=O)NC(=O)[C@H](CC(=O)O)NC(=O)[C@H](Cc2ccc(O)cc2)NC1=O` [ziconotide], which “respiratory depression, subacute administration” value [1] is on record?
Answer: Its value is “did not induce respiratory depression”.

Question: What about the “respiratory minute volume responses to CO2 / acute respiratory depression” value [1] of the same molecule?
Answer: The value was “did not depress”.

Question: What about the stability in solution [2] of the same molecule?
Answer: Its stability in solution is “stable at 45 °C for weeks”.

Question: What about the level at 672 h (in vivo [3]) of the same molecule?
Answer: Its level at 672 h is under 4 ng/mL.

Question: And the “gross behavioral and cardiovascular effects” value [4]?
Answer: Its value is “well tolerated”.

Question: And the “body weight, food intake or clinical pathology parameters” value (dogs)?
Answer: The value was “no treatment-related changes”.

Question: And the “granuloma formation at the catheter tip” value (dogs)?
Answer: The value was “no granuloma formation”.

Question: What about the “mean plasma drug level relative to human” value (dogs) of the same molecule?
Answer: Its value is about 10 fold.

Question: And the “moribund euthanasia due to CNS effects (tremors, shaking-behavior, ataxia)” value (dogs)?
Answer: Its value is 4/16.

Question: And the “target organ toxicity at termination” value (dogs)?
Answer: The value was “nor was any target organ toxicity identified”.

Question: And the “body weight, food intake or clinical pathology parameters” value (rats)?
Answer: The value was “no treatment-related changes”.

Question: What about the “mean plasma drug level relative to human” value (rats) of the same molecule?
Answer: The value was “approximately 3 fold”.

Question: What about the “target organ toxicity at termination” value (rats) of the same molecule?
Answer: The value was “nor was any target organ toxicity identified”.

Question: And the level at 672 h (in vivo [5])?
Answer: The level at 672 h was under 4 ng/mL.

Question: And the GI transit (GI transit)?
Answer: The GI transit was “does not itself affect GI tract motility”.
